Data as given in patent US9149038B2, “4-amino-6-(heterocyclic)picolinates and 6-amino-2-(heterocyclic)pyrimidine-4-carboxylates and their use as herbicides” (Dow AgroSciences LLC, priority 2013, dated 2015).
Like-named read-outs stand apart in the source and are kept apart here.

Columns and labels:
[1] = tested on: Key Grass and Sedge Weeds as well as Grass Crops; experiment: Post-Emergent Test II: postemergent herbicidal activity, visual rating after 14 d (Table 8); format: in vivo; conditions: post-emergence, 336 h; for pest or weed control at 35 g/ha: 35 g ai/ha; for pest or weed control at 70 g/ha: 70 g ai/ha; for pest or weed control at 140 g/ha: 140 g ai/ha
How it was run: (§1)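 Visual scoring at 14 d, 0 (no injury) to 100 (complete kill), relative to untreated plants. Postemergent overhead track-sprayer application, 187 L/ha, at a top rate plus serial ½×–1/16× rates, to plants grown 7–21 d at about 23–29° C day under a 15 h photoperiod, then subirrigated.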

[2] = tested on: Key Broadleaf Weed and Crop Species; experiment: Post-Emergent Test II: postemergent herbicidal activity, visual rating after 14 d (Table 7); format: in vivo; conditions: post-emergence, 336 h; for pest or weed control at 35 g/ha: 35 g ai/ha; for pest or weed control at 70 g/ha: 70 g ai/ha; for pest or weed control at 140 g/ha: 140 g ai/ha
How it was run: as §1

[3] = barnyardgrass (Echinochloa crus-galli), read-out: Visual Growth Reduction (%) 14 Days After Application ECHCG
[4] = giant foxtail (Setaria faberi), read-out: Visual Growth Reduction (%) 14 Days After Application SETFA
[5] = maize, corn (Zea mays), read-out: Visual Growth Reduction (%) 14 Days After Application ZEAMX
[6] = rice (Oryza sativa), read-out: Visual Growth Reduction (%) 14 Days After Application ORYSA
[7] = wheat, spring (Triticum aestivum), read-out: Visual Growth Reduction (%) 14 Days After Application TRZAS
[8] = yellow nutsedge (Cyperus esculentus), read-out: Visual Growth Reduction (%) 14 Days After Application CYPES
[9] = lambsquarters (Chenopodium album), read-out: Visual Growth Reduction (%) 14 Days After Application CHEAL
[10] = oilseed rape, canola (Brassica napus), read-out: Visual Growth Reduction (%) 14 Days After Application BRSNN
[11] = redroot pigweed (Amaranthus retroflexus), read-out: Visual Growth Reduction (%) 14 Days After Application AMARE
[12] = sunflower (Helianthus annuus), read-out: Visual Growth Reduction (%) 14 Days After Application HELAN
[13] = velvetleaf (Abutilon theophrasti), read-out: Visual Growth Reduction (%) 14 Days After Application ABUTH
[14] = wild poinsettia (Euphorbia heterophylla), read-out: Visual Growth Reduction (%) 14 Days After Application EPHHL

COC(=O)c1nc(-c2ccc3c(c2)OC(F)(F)O3)nc(N)c1OC [Compound 62]
pest or weed control at 35 g/ha [1, 3]: 85 to 94%
pest or weed control at 70 g/ha [1, 3]: 85 to 94%
pest or weed control at 140 g/ha [1, 3]: 95 to 100%
pest or weed control at 35 g/ha [1, 4]: 0 to 29%
pest or weed control at 70 g/ha [1, 4]: 30 to 44%
pest or weed control at 140 g/ha [1, 4]: 60 to 74%
pest or weed control at 35 g/ha [1, 5]: 95 to 100%
pest or weed control at 70 g/ha [1, 5]: 95 to 100%
pest or weed control at 140 g/ha [1, 5]: 95 to 100%
pest or weed control at 35 g/ha [1, 6]: 0 to 29%
pest or weed control at 70 g/ha [1, 6]: 0 to 29%
pest or weed control at 140 g/ha [1, 6]: 0 to 29%
pest or weed control at 35 g/ha [1, 7]: 0 to 29%
pest or weed control at 70 g/ha [1, 7]: 0 to 29%
pest or weed control at 140 g/ha [1, 7]: 0 to 29%
pest or weed control at 35 g/ha [1, 8]: 95 to 100%
pest or weed control at 70 g/ha [1, 8]: 95 to 100%
pest or weed control at 140 g/ha [1, 8]: 95 to 100%
pest or weed control at 35 g/ha [2, 9]: 0 to 29%
pest or weed control at 70 g/ha [2, 9]: 0 to 29%
pest or weed control at 140 g/ha [2, 9]: 0 to 29%
pest or weed control at 35 g/ha [2, 10]: 45 to 59%
pest or weed control at 70 g/ha [2, 10]: 45 to 59%
pest or weed control at 140 g/ha [2, 10]: 60 to 74%
pest or weed control at 35 g/ha [2, 11]: 0 to 29%
pest or weed control at 70 g/ha [2, 11]: 0 to 29%
pest or weed control at 140 g/ha [2, 11]: 0 to 29%
pest or weed control at 35 g/ha [2, 12]: 85 to 94%
pest or weed control at 70 g/ha [2, 12]: 75 to 84%
pest or weed control at 140 g/ha [2, 12]: 95 to 100%
pest or weed control at 35 g/ha [2, 13]: 45 to 59%
pest or weed control at 70 g/ha [2, 13]: 85 to 94%
pest or weed control at 140 g/ha [2, 13]: 85 to 94%
pest or weed control at 35 g/ha [2, 14]: 95 to 100%
pest or weed control at 70 g/ha [2, 14]: 95 to 100%
pest or weed control at 140 g/ha [2, 14]: 95 to 100%

COc1c(N)nc(-c2ccc3c(c2)OC(F)(F)O3)nc1C(=O)O [Compound 63]
pest or weed control at 70 g/ha [1, 3]: 95 to 100%
pest or weed control at 140 g/ha [1, 3]: 95 to 100%
pest or weed control at 35 g/ha [1, 4]: 75 to 84%
pest or weed control at 70 g/ha [1, 4]: 95 to 100%
pest or weed control at 140 g/ha [1, 4]: 95 to 100%
pest or weed control at 35 g/ha [1, 5]: 95 to 100%
pest or weed control at 70 g/ha [1, 5]: 95 to 100%
pest or weed control at 140 g/ha [1, 5]: 95 to 100%
pest or weed control at 35 g/ha [1, 6]: 0 to 29%
pest or weed control at 70 g/ha [1, 6]: 0 to 29%
pest or weed control at 140 g/ha [1, 6]: 0 to 29%
pest or weed control at 35 g/ha [1, 7]: 45 to 59%
pest or weed control at 70 g/ha [1, 7]: 45 to 59%
pest or weed control at 140 g/ha [1, 7]: 45 to 59%
pest or weed control at 35 g/ha [1, 8]: 95 to 100%
pest or weed control at 70 g/ha [1, 8]: 95 to 100%
pest or weed control at 140 g/ha [1, 8]: 95 to 100%
pest or weed control at 35 g/ha [2, 9]: 0 to 29%
pest or weed control at 70 g/ha [2, 9]: 0 to 29%
pest or weed control at 140 g/ha [2, 9]: 0 to 29%
pest or weed control at 35 g/ha [2, 10]: 60 to 74%
pest or weed control at 70 g/ha [2, 10]: 75 to 84%
pest or weed control at 140 g/ha [2, 10]: 75 to 84%
pest or weed control at 35 g/ha [2, 11]: 0 to 29%
pest or weed control at 70 g/ha [2, 11]: 30 to 44%
pest or weed control at 140 g/ha [2, 11]: 60 to 74%
pest or weed control at 35 g/ha [2, 12]: 85 to 94%
pest or weed control at 70 g/ha [2, 12]: 85 to 94%
pest or weed control at 140 g/ha [2, 12]: 85 to 94%
pest or weed control at 35 g/ha [2, 13]: 85 to 94%
pest or weed control at 70 g/ha [2, 13]: 60 to 74%
pest or weed control at 140 g/ha [2, 13]: 85 to 94%
pest or weed control at 35 g/ha [2, 14]: 95 to 100%
pest or weed control at 70 g/ha [2, 14]: 95 to 100%
pest or weed control at 140 g/ha [2, 14]: 95 to 100%

COC(=O)c1nc(-c2cc3c(cc2F)OC(F)(F)O3)nc(N)c1OC [Compound 64]
pest or weed control at 35 g/ha [1, 3]: 0 to 29%
pest or weed control at 70 g/ha [1, 3]: 45 to 59%
pest or weed control at 140 g/ha [1, 3]: 75 to 84%
pest or weed control at 35 g/ha [1, 4]: 0 to 29%
pest or weed control at 70 g/ha [1, 4]: 45 to 59%
pest or weed control at 140 g/ha [1, 4]: 75 to 84%
pest or weed control at 35 g/ha [1, 5]: 30 to 44%
pest or weed control at 70 g/ha [1, 5]: 45 to 59%
pest or weed control at 140 g/ha [1, 5]: 75 to 84%
pest or weed control at 35 g/ha [1, 6]: 0 to 29%
pest or weed control at 70 g/ha [1, 6]: 0 to 29%
pest or weed control at 140 g/ha [1, 6]: 0 to 29%
pest or weed control at 35 g/ha [1, 7]: 0 to 29%
pest or weed control at 70 g/ha [1, 7]: 30 to 44%
pest or weed control at 140 g/ha [1, 7]: 30 to 44%
pest or weed control at 35 g/ha [1, 8]: 30 to 44%
pest or weed control at 70 g/ha [1, 8]: 60 to 74%
pest or weed control at 140 g/ha [1, 8]: 85 to 94%
pest or weed control at 35 g/ha [2, 9]: 0 to 29%
pest or weed control at 70 g/ha [2, 9]: 0 to 29%
pest or weed control at 140 g/ha [2, 9]: 0 to 29%
pest or weed control at 35 g/ha [2, 10]: 0 to 29%
pest or weed control at 70 g/ha [2, 10]: 0 to 29%
pest or weed control at 140 g/ha [2, 10]: 0 to 29%
pest or weed control at 35 g/ha [2, 11]: 0 to 29%
pest or weed control at 70 g/ha [2, 11]: 0 to 29%
pest or weed control at 140 g/ha [2, 11]: 0 to 29%
pest or weed control at 35 g/ha [2, 12]: 0 to 29%
pest or weed control at 70 g/ha [2, 12]: 60 to 74%
pest or weed control at 140 g/ha [2, 12]: 75 to 84%
pest or weed control at 35 g/ha [2, 13]: 0 to 29%
pest or weed control at 70 g/ha [2, 13]: 0 to 29%
pest or weed control at 140 g/ha [2, 13]: 0 to 29%
pest or weed control at 35 g/ha [2, 14]: 75 to 84%
pest or weed control at 70 g/ha [2, 14]: 85 to 94%
pest or weed control at 140 g/ha [2, 14]: 95 to 100%
